Measurements: EP0908457B1, “3-(1,2-benzisothiazol- and isoxazol-5-Y1)-2,4(1H,3H)-pyrimidinedione or thione and 3-(1,2-benzisothiazol- and isoxazol-5-y1)-4(3H)-pyrimidinone or thione herbicidal agents” (BASF AKTIENGESELLSCHAFT, priority 1997, dated 1999)

Columns and labels:
Sagittaria pygmaea, L. = assay: Preemergence weed control under flooded paddy conditions, SAGPY (Arrowhead (Pygmaea)); type: in vivo; details: flooded paddy, rated three to four weeks after treatment
Cyperus iria = assay: Preemergence weed control under flooded paddy conditions, CYPIR (Rice Flatsedge); type: in vivo; details: flooded paddy, rated three to four weeks after treatment
[1] = tested on: Echinochloa oryzoides (Ard.) Fritsch.; assay: Preemergence weed control under flooded paddy conditions, ECHORC (Watergrass (Calif.)); type: in vivo; details: flooded paddy, rated three to four weeks after treatment
[2] = tested on: Monochoria vaginalis, Presl.; assay: Preemergence weed control under flooded paddy conditions, MOOVA (Monochoria); type: in vivo; details: flooded paddy, rated three to four weeks after treatment
[3] = tested on: Oryza sativa, (L.) Tebonnet; assay: Rice tolerance to post-transplant applications under flooded paddy conditions (Example 187), ORYSAT (Rice, Tebonnet); details: rated three to four weeks after treatment
[4] = tested on: Cyperus serotinus, Rottb.; assay: Preemergence weed control under flooded paddy conditions, CYPSE (Flatsedge); type: in vivo; details: rated three to four weeks after treatment
[5] = Rate 0.0320 kg/ha, preemergence weeds
[6] = Rate 0.0620 kg/ha, preemergence weeds
[7] = Rate 0.1250 kg/ha, preemergence weeds
[8] = Rate 0.2500 kg/ha, preemergence weeds
[9] = Rate 0.0320 kg/ha, preemergence
[10] = Rate 0.0620 kg/ha, preemergence
[11] = Rate 0.1250 kg/ha, preemergence
[12] = Rate 0.2500 kg/ha, preemergence
Further: meaning of each grade not given here.

SMILES	herbicidal effect rating ORYSAT ([3]; Rate 0.0320 kg/ha)	herbicidal effect rating ORYSAT ([3]; Rate 0.0620 kg/ha)	herbicidal effect rating ORYSAT ([3]; Rate 0.1250 kg/ha)	herbicidal effect rating ORYSAT ([3]; Rate 0.2500 kg/ha)	herbicidal effect rating, SAGPY (Sagittaria pygmaea, L.; [9])	herbicidal effect rating, SAGPY (Sagittaria pygmaea, L.; [10])	herbicidal effect rating, SAGPY (Sagittaria pygmaea, L.; [11])	herbicidal effect rating, SAGPY (Sagittaria pygmaea, L.; [12])	herbicidal effect rating, CYPIR (Cyperus iria; [9])	herbicidal effect rating, CYPIR (Cyperus iria; [10])	herbicidal effect rating, CYPIR (Cyperus iria; [11])	herbicidal effect rating, CYPIR (Cyperus iria; [12])	herbicidal effect rating, ECHORC [1, 9]	herbicidal effect rating, ECHORC [1, 10]	herbicidal effect rating, ECHORC [1, 11]	herbicidal effect rating, ECHORC [1, 12]	herbicidal effect rating, MOOVA [2, 9]	herbicidal effect rating, MOOVA [2, 10]	herbicidal effect rating, MOOVA [2, 11]	herbicidal effect rating, MOOVA [2, 12]	also measured
CN(O)C(=O)COc1ccccc1-c1nsc2ccc(-n3c(=O)cc(C(F)(F)F)n(C)c3=O)cc12 [Example 336, Acetohydroxamic acid, 2-{o-{5-[3,6-dihydro-3-methyl-2,6-dioxo-4-(trifluoromethyl)-1(2H)-pyrimidinyl]-1,2-benzisothiazol-3-yl}phenoxy}-N-methyl-]	2.0	4.5	4.5	9.0																	herbicidal effect rating, SAGPY (Sagittaria pygmaea, L.; [5]): 0.0; herbicidal effect rating, SAGPY (Sagittaria pygmaea, L.; [6]): 0.0; herbicidal effect rating, SAGPY (Sagittaria pygmaea, L.; [7]): 1.0; herbicidal effect rating, SAGPY (Sagittaria pygmaea, L.; [8]): 9.0; herbicidal effect rating, CYPIR (Cyperus iria; [5]): 0.0; herbicidal effect rating, CYPIR (Cyperus iria; [6]): 1.0; herbicidal effect rating, CYPIR (Cyperus iria; [7]): 4.0; herbicidal effect rating, CYPIR (Cyperus iria; [8]): 9.0; herbicidal effect rating, ECHORC [1, 5]: 6.5; herbicidal effect rating, ECHORC [1, 6]: 9.0; herbicidal effect rating, ECHORC [1, 7]: 9.0; herbicidal effect rating, ECHORC [1, 8]: 9.0; herbicidal effect rating, MOOVA [2, 5]: 9.0; herbicidal effect rating, MOOVA [2, 6]: 9.0; herbicidal effect rating, MOOVA [2, 7]: 9.0; herbicidal effect rating, MOOVA [2, 8]: 9.0; herbicidal effect rating, CYPSE [4, 5]: 0.0; herbicidal effect rating, CYPSE [4, 6]: 0.0; herbicidal effect rating, CYPSE [4, 7]: 2.0; herbicidal effect rating, CYPSE [4, 8]: 3.0
Cn1c(C(F)(F)F)cc(=O)n(-c2ccc3snc(C(=O)NS(=O)(=O)Cc4ccccc4)c3c2)c1=O [Example 341, 1,2-Benzisothiazole-3-carboxamide, N-(benzylsulfonyl)-5-[3,6-dihydro-3-methyl-2,6-dioxo-4-(trifluoromethyl)-1(2H)-pyrimidinyl]-]	1.5	2.5	3.0	3.5																	herbicidal effect rating, SAGPY (Sagittaria pygmaea, L.; [5]): 1.0; herbicidal effect rating, SAGPY (Sagittaria pygmaea, L.; [6]): 4.5; herbicidal effect rating, SAGPY (Sagittaria pygmaea, L.; [7]): 4.5; herbicidal effect rating, SAGPY (Sagittaria pygmaea, L.; [8]): 4.5; herbicidal effect rating, CYPIR (Cyperus iria; [5]): 1.0; herbicidal effect rating, CYPIR (Cyperus iria; [6]): 2.0; herbicidal effect rating, CYPIR (Cyperus iria; [7]): 3.5; herbicidal effect rating, CYPIR (Cyperus iria; [8]): 4.0; herbicidal effect rating, ECHORC [1, 5]: 3.0; herbicidal effect rating, ECHORC [1, 6]: 5.5; herbicidal effect rating, ECHORC [1, 7]: 8.0; herbicidal effect rating, ECHORC [1, 8]: 8.5; herbicidal effect rating, MOOVA [2, 5]: 7.0; herbicidal effect rating, MOOVA [2, 6]: 9.0; herbicidal effect rating, MOOVA [2, 7]: 9.0; herbicidal effect rating, MOOVA [2, 8]: 9.0; herbicidal effect rating, CYPSE [4, 5]: 0.0; herbicidal effect rating, CYPSE [4, 6]: 0.0; herbicidal effect rating, CYPSE [4, 7]: 2.5; herbicidal effect rating, CYPSE [4, 8]: 3.5
COc1ccc(C)cc1-c1noc2cc(F)c(-n3c(=O)cc(C(F)(F)F)n(C)c3=O)cc12 [Example 345, 2,4(1H,3H)-Pyrimidinedione, 3-[6-fluoro-3-(6-methoxy-m-tolyl)-1,2-benzisoxazol-5-yl]-1-methyl-6-(trifluoromethyl)-]	5.5	5.5	5.5	6.0																	herbicidal effect rating, SAGPY (Sagittaria pygmaea, L.; [5]): 4.5; herbicidal effect rating, SAGPY (Sagittaria pygmaea, L.; [6]): 9.0; herbicidal effect rating, SAGPY (Sagittaria pygmaea, L.; [7]): 9.0; herbicidal effect rating, SAGPY (Sagittaria pygmaea, L.; [8]): 9.0; herbicidal effect rating, CYPIR (Cyperus iria; [5]): 9.0; herbicidal effect rating, CYPIR (Cyperus iria; [6]): 9.0; herbicidal effect rating, CYPIR (Cyperus iria; [7]): 9.0; herbicidal effect rating, CYPIR (Cyperus iria; [8]): 9.0; herbicidal effect rating, ECHORC [1, 5]: 9.0; herbicidal effect rating, ECHORC [1, 6]: 9.0; herbicidal effect rating, ECHORC [1, 7]: 9.0; herbicidal effect rating, ECHORC [1, 8]: 9.0; herbicidal effect rating, MOOVA [2, 5]: 9.0; herbicidal effect rating, MOOVA [2, 6]: 9.0; herbicidal effect rating, MOOVA [2, 7]: 9.0; herbicidal effect rating, MOOVA [2, 8]: 9.0; herbicidal effect rating, CYPSE [4, 5]: 5.0; herbicidal effect rating, CYPSE [4, 6]: 9.0; herbicidal effect rating, CYPSE [4, 7]: 4.5; herbicidal effect rating, CYPSE [4, 8]: 9.0
COC(C)c1nsc2ccc(-n3c(=O)cc(C(F)(F)F)n(C)c3=O)cc12 (stereo not drawn) [Example 350, 2,4(1H,3H)-Pyrimidinedione, 3-[3-(1-methoxyethyl)-1,2-benzisothiazol-5-yl]-1-methyl-6-(trifluoromethyl)-]	9.0	9.0	9.0	9.0	5.5	7.0	7.5	9.0	4.0	5.0	9.0	9.0	6.0	7.5	8.0	9.0	9.0	9.0	9.0	9.0	herbicidal effect rating, CYPSE [4, 9]: 7.5; herbicidal effect rating, CYPSE [4, 10]: 8.5; herbicidal effect rating, CYPSE [4, 11]: 8.5; herbicidal effect rating, CYPSE [4, 12]: 9.0
Cn1c(C(F)(F)F)cc(=O)n(-c2ccc3snc(C(=O)NS(=O)(=O)c4ccccc4)c3c2)c1=O [Example 352, 1,2-Benzisothiazole-3-carboxamide, 5-[3,6-dihydro-3-methyl-2,6-dioxo-4-(trifluoromethyl)-1(2H)-pyrimidinyl]-N-(phenylsulfonyl)-]	0.5	1.0	2.5	3.0	2.5	5.0	9.0	9.0	2.0	6.5	7.5	9.0	2.5	4.0	6.5	9.0	6.0	9.0	9.0	9.0	herbicidal effect rating, CYPSE [4, 9]: 0.0; herbicidal effect rating, CYPSE [4, 10]: 0.0; herbicidal effect rating, CYPSE [4, 11]: 1.0; herbicidal effect rating, CYPSE [4, 12]: 0.0
Cc1ccc(S(=O)(=O)NC(=O)c2nsc3ccc(-n4c(=O)cc(C(F)(F)F)n(C)c4=O)cc23)cc1 [Example 353, 1,2-Benzisothiazole-3-carboxamide, 5-[3,6-dihydro-3-methyl-2,6-dioxo-4-(trifluoromethyl)-1(2H)-pyrimidinyl]-N-(p-tolylsulfonyl)-]	2.5	3.0	3.5	4.0	0.0	0.0	0.0	0.0	0.0	0.0	1.0	3.0	0.0	2.0	2.5	3.0	3.5	6.5	8.0	8.0	herbicidal effect rating, CYPSE [4, 9]: 0.0; herbicidal effect rating, CYPSE [4, 10]: 0.0; herbicidal effect rating, CYPSE [4, 11]: 1.5; herbicidal effect rating, CYPSE [4, 12]: 2.5
Cc1ccc(OCC(=O)N(C)O)c(-c2nsc3ccc(-n4c(=O)cc(C(F)(F)F)n(C)c4=O)cc23)c1 [Example 355, Acetohydroxamic acid, 2-{{2-{5-[3,6-dihydro-3-methyl-2,6-dioxo-4-(trifluoromethyl)-1(2H)pyrimidinyl]-1,2-benzisothiazol-3-yl}-p-tolyl}oxy}-N-methyl-]	2.5	3.0	5.5	5.0	2.0	4.5	4.5	9.0	4.5	4.5	6.5	5.0	7.0	9.0	9.0	9.0	9.0	9.0	9.0	9.0	herbicidal effect rating, CYPSE [4, 9]: 0.0; herbicidal effect rating, CYPSE [4, 10]: 1.0; herbicidal effect rating, CYPSE [4, 11]: 3.5; herbicidal effect rating, CYPSE [4, 12]: 5.0
